Assay results from article PMC9041313 (RSC Advances, 2021).

Target: T1, human MAGL (hMAGL) (Homo sapiens, UniProt Q99685)
T1 sequence (Q99685 1-303): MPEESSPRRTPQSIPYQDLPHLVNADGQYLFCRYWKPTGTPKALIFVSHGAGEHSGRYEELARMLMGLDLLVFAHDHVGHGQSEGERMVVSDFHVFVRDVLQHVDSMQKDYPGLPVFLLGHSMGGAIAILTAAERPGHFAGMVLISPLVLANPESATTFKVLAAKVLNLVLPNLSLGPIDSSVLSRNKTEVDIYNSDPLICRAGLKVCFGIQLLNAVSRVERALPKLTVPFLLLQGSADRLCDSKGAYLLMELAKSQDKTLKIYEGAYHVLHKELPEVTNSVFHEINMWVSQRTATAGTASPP
Experiment: Human MAGL assay
Type: biochemical
Details: 10 μM compound concentration

inhibition% against hMAGL: over 40%
Substance: 8-prenylnaringenin [NP-2]
